These results are taken from patent US7579371B2, “Methods of using [3.2.0] heterocyclic compounds and analogs thereof” (Nereus Pharmaceuticals, Inc., priority 2004, dated 2009).

Data set [1] addresses rabbit muscle 20S proteasome, trypsin-like activity (Oryctolagus cuniculus, UniProt G1SWK8). Briefly: Trypsin-like activity of purified rabbit 20S proteasome (Boc-LRR-AMC).
Data set [2] concerns NCI-H292. Briefly: Cell growth inhibition assay (resazurin, 48 h). The data set is classed as cell-based, human. The settings on record: Homo sapiens, NCI-H292, 48 h.
Data set [3] has as its system MES-SA/Dx5. Nature of the data set: Cell growth inhibition assay (resazurin, 48 h). The settings on record: for EC50: MES-SA/Dx5, 48 h. As for the experimental part:
(§1) Concentrations ranging from 6.32 μM to 2 nM were tested for II-2 and II-4.
The multidrug resistant MES-SA/Dx5 tumor cell line was derived from the human uterine sarcoma MES-SA tumor cell line and expresses elevated P-Glycoprotein (P-gp), an ATP dependent efflux pump.
A general note: The colour change of resazurin is a common sign of viable cells or microbes.

Data set [4] deals with HL-60/MX2. Briefly: Cell growth inhibition assay (resazurin, 48 h). As to conditions: HL-60/MX2, 48 h. As for the experimental part: The DNA binding agent Mitoxantrone was included as a control, as HL-60/MX2 cells are reported to be resistant to this chemotherapeutic agent (Harker W. G. et al. 1989).
as §1
HL-60/MX2 is a multidrug resistant tumor cell line derived from the human promyelocytic leukemia cell line, HL-60 and expresses reduced topoisomerase II activity. […] Mitoxantrone, the topoisomerase II targeting agent was included as a control.

Data set [5] relates to NF-κB. Briefly: NF-κB-mediated luciferase reporter gene assay, HEK293 NF-κB/Luc cells, TNF-α stimulation. The data set is classed as cell-based. The settings on record: Homo sapiens, HEK293, 1 hr pretreatment, 6 hours TNF-α; read-out: EC50, NF-κB-mediated luciferase activity. As to the method: The HEK293 NF-κB/luciferase reporter cell line is a derivative of the human embryonic kidney cell line (ATCC; CRL-1573) and carries a luciferase reporter gene under the regulation of 5× NF-κB binding sites. […] When performing the luciferase assay, the DMEM basal medium was replaced with phenol-red free DMEM basal medium and the G418 was omitted.
For NF-κB-mediated luciferase assays, HEK293 NF-κB/luciferase cells were seeded at 1.5×10^4 cells/well in 90 μl phenol-red free DMEM complete medium into Corning 3917 white opaque-bottom tissue culture plates. For Formulae II-2, II-4, II-5A and II-18, a 400 μM starting dilution was made in 100% DMSO and this dilution was used to generate an 8-point half log dilution series. […] For formula II-20, a 2.5 mM or 8 mM starting dilution was made in 100% DMSO and the final test concentrations ranged from 6.3 μM to 2.0 nM or 20 μM to 6.3 nM respectively. The plates were returned to the incubator for 1 hour. After 1 hr pretreatment, 10 μl of a 50 ng/ml TNF-α solution, prepared in the phenol-red free DMEM medium was added, and the plates were incubated for an additional 6 hours.
At the end of the TNF-α stimulation, 100 μl of Steady Lite HTS luciferase reagent (Packard Bioscience) was added to each well and the plates were left undisturbed for 10 min at room temperature before measuring the luciferase activity. The relative luciferase units (RLU) were measured by using a Fusion microplate fluorometer (Packard Bioscience).
NF-κB inducible luciferase activity was measured at 6 hours.

The subject of data set [6] is U266. Briefly: Cell growth inhibition assay (resazurin, 48 h). The data set is classed as cell-based. The settings on record: Homo sapiens, U-266, 48 h, U266, 48 h; read-out: EC50.
Data set [7] relates to PC-3. Briefly: Cell growth inhibition assay (resazurin, 48 h). As to conditions: Homo sapiens, PC-3, 48 h.
Data set [8] deals with T1, 20S proteasome chymotrypsin-like activity in PC-3 cells (Homo sapiens, UniProt P28074).
T1 construct: PC-3 (ATCC, CRL-1435), the human prostate cancer cell line; host or cells: PC-3
T1 sequence (P28074 60-263): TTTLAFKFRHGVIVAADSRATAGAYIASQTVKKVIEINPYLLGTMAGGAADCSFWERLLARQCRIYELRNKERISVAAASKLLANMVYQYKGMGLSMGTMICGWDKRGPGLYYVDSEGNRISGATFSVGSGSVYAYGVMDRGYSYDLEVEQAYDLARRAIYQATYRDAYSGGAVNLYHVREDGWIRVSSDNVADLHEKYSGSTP
Nature of the data set: Chymotrypsin-like activity of 20S proteasomes in treated PC-3 cells. The data set is classed as cell-based. The settings on record: 1 hr. As to the method:
PC-3 (ATCC, CRL-1435), the human prostate cancer cell line, was cultured in F12K medium supplemented with 2 mM L-glutamine, 100 units/ml penicillin, 100 μg/ml streptomycin and 10% heat inactivated fetal bovine serum at 37° C., 5% CO2 and 95% humidified air. […] DMSO was used as the vehicle control at a final concentration of 0.1%. Following 1 hr incubation of PC-3 cells with the compounds, the cells were washed 3× with ice-cold 1× Dulbecco's Phosphate-Buffered Saline (DPBS, Mediatech, Herndon, Va.). […] Cell debris was pelleted by centrifugation at 14,000 rpm for 10 min, 4° C. and supernatants (=cell lysates) were transferred to a new tube. Protein concentration was determined by the BCA protein assay kit (Pierce Biotechnology, Rockford, Ill.). […] The released coumarin (AMC) was measured fluorometrically by using λex=390 nm and λem=460 nm. The assay was performed in a microtiter plate (Corning 3904) and followed kinetically with measurements every five minutes for 2 hr. The total amount of protein used for each assay was 20 μg. The final concentration of Suc-LLVY-AMC and DMSO was 20 μM and 0.2%, respectively. Results are presented as the percent inhibition of the 20S proteasome chymotrypsin-like activity relative to the DMSO control.

For data set [9], the system named is RPMI 8226. Briefly: Cell growth inhibition assay (resazurin, 48 h). As to conditions: RPMI 8226. As to the method: RPMI 8226 (CCL-155), HT-29 (HTB-38), and B16-F10 (CRL-6475) cells were purchased from ATCC. RPMI 8226 cells were maintained in RPMI 1640 media supplemented with 10% (v/v) FBS, 2 mM L-glutamine, 1 mM sodium pyruvate and Penicillin/Streptomycin at 100 IU/ml and 100 μg/ml, respectively. HT-29 cells were maintained in McCoys 5A supplemented with 10% (v/v) FBS, 2 mM L-glutamine, 1 mM sodium pyruvate, 1% (v/v) non-essential amino acids, 10 mM HEPES and Penicillin/Streptomycin at 100 IU/ml and 100 μg/ml, respectively. B16-F10 cells were maintained in DMEM supplemented with 10% (v/v) FBS, 2 mM L-glutamine, 10 mM HEPES and Penicillin/Streptomycin at 100 IU/ml and 100 μg/ml, respectively.
RPMI 8226 cells were seeded at 2×10^4 cells/well in 90 μl RPMI media containing 10% (v/v) FBS or 1% (v/v) FBS into 96 well black-walled, clear-bottom tissue culture plates. […] Formulae II-16, II-17 and Formula II-18 were serially diluted in media containing 1% or 10% FBS and added in triplicate to the test wells. […] The final concentration of Formula II-18 ranged from 2 μM to 630 pM.

Data set [10] concerns the target rabbit muscle 20S proteasome, chymotrypsin-like activity (Oryctolagus cuniculus, UniProt G1T4Q9). Briefly: Chymotrypsin-like activity of purified rabbit muscle 20S proteasome (suc-LLVY-AMC). The data set is classed as biochemical. As for the experimental part:
This peptide substrate is specific for the chymotrypsin-like enzyme activity of the proteasome.
Omuralide was prepared as a 10 mM stock in DMSO and stored in 5 μL aliquots at −80° C. […] The assay measures the hydrolysis of Suc-LLVY-AMC into Suc-LLVY and AMC. The released coumarin (AMC) was measured fluorometrically by using λex=390 nm and λem=460 nm. The assays were performed in a microtiter plate (Corning 3904), and followed kinetically with measurements every five minutes. The instrument used was a Thermo Lab Systems Fluoroskan, with the incubation chamber set to 37° C. The assays were performed according to the manufacturer's protocol, with the following changes. The proteasome was activated as described with SDS, and held on ice prior to the assay. […] Ten microliters of each dose were added in triplicate to the assay plate, and 190 μL of the activated proteasome was added and mixed. The samples were pre-incubated in the Fluoroskan for 5 minutes at 37° C. Substrate was added and the kinetics of AMC were followed for one hour.

A short description of data set [11]: Stability in solution. The data set is classed as physicochemical. The text has this: Compound VI-1B: UV (Acetonitrile/H2O) λmax 235 (sh) nm; ESMS, m/z 585.2 (M+H)^+.
Data set [12] has as its system RAW264.7 cells. The settings on record: Tang et al., Infect Immun 67:3055 (1999); read-out: EC50 in the LeTx assay; cited from earlier work.
Data set [13] has as its system RAW264.7 cells. Briefly: cells. The settings on record: Mus musculus, RAW264.7, read-out: viability, compound + LeTx.

“And” between values parts separate entries of the source, which are not always exact repeats. Equal values may be shown once. Read-outs that look alike come from different tables or passages of the source. Peptide text beside a SMILES is read from it. * marks the point of attachment. Cbz = O=C(OCc1ccccc1)*

Chain of rabbit muscle 20S proteasome, trypsin-like activity (G1SWK8 1-271): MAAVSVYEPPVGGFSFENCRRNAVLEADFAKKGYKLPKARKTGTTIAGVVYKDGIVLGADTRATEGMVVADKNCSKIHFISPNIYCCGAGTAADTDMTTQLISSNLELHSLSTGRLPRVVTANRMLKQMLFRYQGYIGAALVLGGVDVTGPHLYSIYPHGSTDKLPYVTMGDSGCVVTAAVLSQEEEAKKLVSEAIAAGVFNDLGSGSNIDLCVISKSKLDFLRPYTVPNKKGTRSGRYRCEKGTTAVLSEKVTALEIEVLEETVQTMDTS
Chain of rabbit muscle 20S proteasome, chymotrypsin-like activity (G1T4Q9 1-263): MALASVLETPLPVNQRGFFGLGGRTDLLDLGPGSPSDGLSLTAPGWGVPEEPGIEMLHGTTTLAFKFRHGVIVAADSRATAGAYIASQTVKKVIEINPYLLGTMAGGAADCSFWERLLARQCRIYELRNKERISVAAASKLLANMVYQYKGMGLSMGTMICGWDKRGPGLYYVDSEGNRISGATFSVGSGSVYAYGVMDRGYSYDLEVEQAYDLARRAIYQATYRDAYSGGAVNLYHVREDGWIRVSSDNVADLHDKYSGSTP

In the case of `C[C@@]12OC(=O)[C@]1([C@@H](O)[C@H]1CCC[C@H]3O[C@@H]13)NC(=O)[C@@H]2CCCl` (single isomer, unassigned) [Formula II-5A], the response in [1] was half-maximal at 87 nM (EC50).

With `C[C@@]12OC(=O)[C@]1([C@@H](O)C1CCCCC1)NC(=O)[C@@H]2CCCl` [Formula II-2], the EC50 (in general, the midpoint of the concentration-response curve) stood at 395 nM in data set [2]; 322 nM in [2] (read-out: EC50); 220 nM in [3] (Homo sapiens); 138 nM in data set [3]; 142 nM in data set [4] (Homo sapiens, HL60/MX2, 48 h).

As to `CC[C@H]1C(=O)N[C@@]2([C@@H](O)C3CCCCC3)C(=O)O[C@@]12C` [Formula II-3], the EC50 in data set [5], in data set [3] (Homo sapiens), in data set [6] and in data set [7] was greater than 20000 nM each time.

`C[C@@]12OC(=O)[C@]1([C@@H](O)C1CCCCC1)NC(=O)[C@@H]2CCBr` [Formula II-4]: the EC50 was 213 nM in data set [2]; 192 nM in [2] (read-out: EC50); 178 nM in [3] (Homo sapiens); 93 nM in data set [3]; 39 nM in data set [6].

On to `C[C@@]12OC(=O)[C@]1([C@@H](O)[C@H]1CCC[C@@H]3O[C@H]13)NC(=O)[C@@H]2CCCl` [Formula II-5B], for which, in data set [1], the EC50 is 762 nM and 716 nM.

As for `CC[C@H]1C(=O)N[C@@]2([C@@H](O)[C@@H]3C=CCCC3)C(=O)O[C@@]12C` [Formula II-17], the “% inhibition of the chymotrypsin-like activity of 20S proteasomes in PC-3 cell lysates” value in data set [8] (100 nM) was 26%. Further, the inhibition (usually how much of the control response was suppressed) at 0.01 µM in data set [8] (PC-3, read-out: % inhibition of the chymotrypsin-like activity of 20S proteasomes in PC-3 cell lysates, 10 nM) stood at 16%. Moreover, in [8] (PC-3, read-out: % inhibition of the chymotrypsin-like activity of 20S proteasomes in PC-3 cell lysates, 100 nM), the inhibition at 0.1 µM worked out at 26%. Moreover, in [8] (PC-3, read-out: % inhibition of the chymotrypsin-like activity of 20S proteasomes in PC-3 cell lysates, 1,000 nM), the inhibition at 1 µM came out at 49%. Further, the inhibition at 10 µM in data set [8] (PC-3, read-out: % inhibition of the chymotrypsin-like activity of 20S proteasomes in PC-3 cell lysates, 10,000 nM) was 79%.

For the compound `C[C@@]12OC(=O)[C@]1([C@@H](O)[C@@H]1C=CCCC1)NC(=O)[C@@H]2CCBr` [Formula II-18], in [9], the “% cytotoxicity” value is given as 94, 94%.

Compound `C[C@@]12OC(=O)[C@]1(C(=O)C1=CC(O)CCC1)NC(=O)[C@]2(C)CCCl` (some centres unmarked) [Formula II-31] yielded an EC50 in [10] greater than 20000 nM.

For `C[C@]1(O)[C@@H](CCCl)C(=O)N[C@]1(C(=O)SCC(NC(=O)CCC(N)C(=O)O)C(=O)NCC(=O)O)[C@@H](O)[C@@H]1C=CCCC1` (some centres unmarked) [Formula II-48], the stability in solution entry in [11] is “unstable in solution”.

Consider `C[C@@]12OC(=O)[C@]1([C@@H](O)[C@H]1CCC[C@H](Cl)[C@H]1O)NC(=O)[C@@H]2CCCl` [Formula IV-3C], for which the half-maximal effective concentration (EC50) in data set [5] is greater than 20000 nM.

Regarding `CC(=O)N[C@@H](CSC(=O)[C@]1([C@@H](O)C(C)C)NC(=O)[C@H](C)[C@@H]1O)C(=O)O` [Lactacystin], the EC50 in [12] is 3000 nM.

Turning to `CC(C)C[C@@H](C=O)NC(=O)[C@H](CC(C)C)NC(=O)[C@H](CC(C)C)NC(=O)OCc1ccccc1` [MG132] (Cbz-Leu-Leu-Leu-aldehyde), the EC50 in [12] was 3000 nM.

In the case of `O=C1c2c(O)ccc(O)c2C(=O)c2c(NCCNCCO)ccc(NCCNCCO)c21` [Mitoxantrone], the EC50 in data set [4] is 827 nM and 1340 nM and 1170 nM; in data set [4] (Homo sapiens, HL60/MX2, 48 h) it was 1410 nM.

As to `CC(C)[C@H](O)[C@@]12NC(=O)[C@H](C)[C@@H]1OC2=O` [Omuralide, reference compound], the “% inhibition of the chymotrypsin-like activity of 20S proteasomes in PC-3 cell lysates” value in data set [8] (100 nM) stood at 36%. Besides, the viability (as a rule, a per cent measure of how many cells are alive, often set against a control) at 1 µM in data set [13] worked out at 37%.

As for `CC(=O)O[C@H]1C(=O)[C@@]2(C)[C@H]([C@H](OC(=O)c3ccccc3)[C@]3(O)C[C@H](OC(=O)[C@H](O)[C@@H](NC(=O)c4ccccc4)c4ccccc4)C(C)=C1C3(C)C)[C@]1(OC(C)=O)CO[C@@H]1C[C@@H]2O` [Paclitaxel, reference compound], in [3], the “% cytotoxicity” value came out at 78 ± 1%.
